# Columns and labels:
# cocklebur = assay: Test B pre-/postemergence herbicide test; format: in vivo, Xanthium strumarium; settings: for Cocklebur plant response rating: postemergence, visual rating, scale 0 (no effect) to 100 (complete control)
# Outline: (§1)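 Species tested were Echinochloa crus-galli, Ipomoea coccinea, Xanthium strumarium and Oryza sativa, treated both before emergence and at the 1- to 4-leaf stage; rice and barnyardgrass were also tested under flooding at 2 leaves. Greenhouse incubation lasted 13–15 days before visual 0–100 scoring.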
# giant foxtail [1] = assay: Test B pre-/postemergence herbicide test; format: in vivo, Setaria faberi; settings: for Foxtail, Giant plant response rating: postemergence, visual rating, scale 0 (no effect) to 100 (complete control)
# Outline: (§2)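 Response was scored visually 13 to 15 days after treatment against untreated greenhouse controls, 0 meaning no effect and 100 complete control. Formulations (solvent mixture plus surfactant) went onto soil after planting, onto foliage of 1- to 4-leaf plants, and onto 2-leaf plants in a flooded paddy set including rice and barnyardgrass.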
# corn = assay: Test B pre-/postemergence herbicide test; format: in vivo, Zea mays; settings: for Corn plant response rating: postemergence, visual rating, scale 0 (no effect) to 100 (complete control)
# Outline: as §2
# Surinam grass = assay: Test B pre-/postemergence herbicide test; format: in vivo, Urochloa decumbens; settings: for Surinam Grass plant response rating: postemergence, visual rating, scale 0 (no effect) to 100 (complete control)
# Outline: as §2
# rice [2] = assay: Test B flooded paddy test; format: in vivo, Oryza sativa; settings: 1000 g ai/ha, visual rating, scale 0 to 100 (0 no effect, 100 complete control), 13 to 15 days
# Outline: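 Postemergence plants were sprayed with formulated test chemicals at 2 to 18 cm height (1- to 4-leaf stage); paddy species were grown to the 2-leaf stage. After 13 to 15 days in a greenhouse, injury was rated visually against untreated controls on a 0–100 scale (0 = no effect, 100 = complete control).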
# barnyardgrass [3] = assay: Test A pre-/postemergence herbicide test; format: in vivo, Echinochloa crus-galli
# Outline: (§3)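 Plants are held in greenhouse about ten days after treatment, then compared with untreated controls and scored 0 (no effect) to 100 (complete control). Preemergence dosing is a directed soil spray on sown sandy loam; postemergence dosing is spray to runoff at 2–10 cm height.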
# rice [4] = assay: Test B pre-/postemergence herbicide test; format: in vivo, Oryza sativa; settings: preemergence
# Outline: as §2
# barnyardgrass [5] = assay: Test B flooded paddy test; format: in vivo, Echinochloa crus-galli; settings: 1000 g ai/ha, visual rating, scale 0 to 100 (0 no effect, 100 complete control), 13 to 15 days
# Outline: (§4)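 Plants grow to 1- to 4-leaf stage (2–18 cm) for postemergence spraying, or to 2-leaf stage for the paddy test. Formulated compound is applied. Greenhouse holding lasts 13–15 days. Response is scored visually relative to controls, 0 no effect to 100 complete control; a dash means no result.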
# ducksalad = assay: Test B flooded paddy test; format: in vivo, Heteranthera limosa; settings: 1000 g ai/ha, visual rating, scale 0 to 100 (0 no effect, 100 complete control), 13 to 15 days
# Outline: as §4
# large crabgrass [6] = assay: Test B pre-/postemergence herbicide test; format: in vivo, Digitaria sanguinalis; settings: for Crabgrass, Large plant response rating: postemergence, visual rating, scale 0 (no effect) to 100 (complete control)
# Outline: as §2
# velvetleaf [7] = assay: Test B pre-/postemergence herbicide test; format: in vivo, Abutilon theophrasti; settings: for Velvetleaf plant response rating: postemergence, visual rating, scale 0 (no effect) to 100 (complete control)
# Outline: as §2
# morningglory [8] = assay: Test B pre-/postemergence herbicide test; format: in vivo, Ipomoea coccinea; settings: for Morningglory plant response rating: postemergence, visual rating, scale 0 (no effect) to 100 (complete control)
# Outline: as §1
# barnyardgrass [9] = assay: Test B pre-/postemergence herbicide test; format: in vivo, Echinochloa crus-galli; settings: for Barnyardgrass plant response rating: postemergence, visual rating, scale 0 (no effect) to 100 (complete control)
# Outline: as §1
# pigweed = assay: Test B pre-/postemergence herbicide test; format: in vivo, Amaranthus retroflexus; settings: for Pigweed plant response rating: postemergence, visual rating, scale 0 (no effect) to 100 (complete control)
# Outline: as §2
# wild oat = assay: Test B postemergence herbicide test; format: in vivo, Avena fatua; settings: postemergence, visual rating, scale 0 (no effect) to 100 (complete control)
# Outline: (§5)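 Formulated test chemicals went onto postemergence plants measuring 2 to 18 cm, at one to four leaves. For the paddy assay, species had reached two leaves. Scoring took place 13–15 days later by eye, relative to untreated plants, using 0 for no effect up to 100 for full control.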
# morningglory [10] = assay: Test A pre-/postemergence herbicide test; format: in vivo, Ipomoea spp.
# Outline: as §3
# lambsquarters = assay: Test B pre-/postemergence herbicide test; format: in vivo, Chenopodium album; settings: for Lambsquarters plant response rating: postemergence, visual rating, scale 0 (no effect) to 100 (complete control)
# Outline: as §2
# [11] = system: small flower umbrella sedge; assay: Test B flooded paddy test; format: in vivo, Cyperus difformis; settings: 1000 g ai/ha, visual rating, scale 0 to 100 (0 no effect, 100 complete control), 13 to 15 days
# Outline: as §4
# large crabgrass [12] = assay: Test A pre-/postemergence herbicide test; format: in vivo, Digitaria sanguinalis
# Outline: as §3
# giant foxtail [13] = assay: Test A pre-/postemergence herbicide test; format: in vivo, Setaria faberi
# Outline: as §3
# blackgrass = assay: Test B postemergence herbicide test; format: in vivo, Alopecurus myosuroides; settings: postemergence, visual rating, scale 0 (no effect) to 100 (complete control)
# Outline: as §4
# redroot pigweed = assay: Test A pre-/postemergence herbicide test; format: in vivo, Amaranthus retroflexus
# Outline: as §3
# velvetleaf [14] = assay: Test A pre-/postemergence herbicide test; format: in vivo, Abutilon theophrasti
# Outline: as §3
# wheat = assay: Test B postemergence herbicide test; format: in vivo, Triticum aestivum; set-up: key to Wheat plant response rating: 0 = no effect, 100 = complete control; settings: postemergence, visual rating, scale 0 (no effect) to 100 (complete control)
# Outline: as §5
# [15] = 125 g ai/ha, 0 = no effect, 100 = complete control, preemergence
# [16] = 500 g ai/ha, visual rating 0-100, 0 no effect, 100 complete control, preemergence
# [17] = Postemergence, 500 g ai/ha, 0 to 100 scale, 0 no effect, 100 complete control
# [18] = Postemergence, 2000 g ai/ha, 0 to 100 scale, 0 no effect, 100 complete control
# [19] = Preemergence, 2000 g ai/ha, visual rating, 0 to 100 scale (0 no effect, 100 complete control)
# [20] = preemergence, 500 g ai/ha, visual injury, 0 to 100 scale (0 no effect, 100 complete control)
compound,measurement,setting,value
CCOc1cccc(NC(=O)c2cn(C(C)(C)C)nc2C)c1 [Compound 190],Cocklebur plant response rating (0 to 100 scale),cocklebur; [15],0
same,"Plant response rating, Cocklebur",cocklebur; [16],0
same,Cocklebur plant response rating,cocklebur; 125 g ai/ha,0
same,Cocklebur plant response rating,cocklebur; 500 g ai/ha,10
same,"Foxtail, Giant plant response rating (0 to 100 scale)",giant foxtail [1]; [15],0
same,"Plant response rating, Foxtail, Giant",giant foxtail [1]; [16],10
same,"Foxtail, Giant plant response rating",giant foxtail [1]; 125 g ai/ha,10
same,"Foxtail, Giant plant response rating",giant foxtail [1]; 500 g ai/ha,10
same,Corn plant response rating (0 to 100 scale),corn; [15],0
same,"Plant response rating, Corn",corn; [16],0
same,Corn plant response rating,corn; 125 g ai/ha,10
same,Corn plant response rating,corn; 500 g ai/ha,10
same,Surinam Grass plant response rating (0 to 100 scale),Surinam grass; [15],0
same,"Plant response rating, Surinam Grass",Surinam grass; [16],10
same,Surinam Grass plant response rating,Surinam grass; 125 g ai/ha,10
same,Surinam Grass plant response rating,Surinam grass; 500 g ai/ha,20
same,Rice plant response rating,rice [2],0
same,Barnyardgrass plant response rating,barnyardgrass [3]; [17],0
same,"Plant response rating, Barnyardgrass",barnyardgrass [3]; [18],0
same,Barnyardgrass plant response rating,barnyardgrass [3]; [19],40
same,Barnyardgrass plant response rating,barnyardgrass [3]; [20],20
same,Rice plant response rating (0 to 100 scale),"rice [4]; 125 g ai/ha, 0 = no effect, 100 = complete control",0
same,"Plant response rating, Rice","rice [4]; 500 g ai/ha, visual rating 0-100, 0 no effect, 100 complete control",30
same,Barnyardgrass plant response rating,barnyardgrass [5],20
same,Ducksalad plant response rating,ducksalad,60
same,"Crabgrass, Large plant response rating (0 to 100 scale)",large crabgrass [6]; [15],30
same,"Plant response rating, Crabgrass, Large",large crabgrass [6]; [16],80
same,"Crabgrass, Large plant response rating",large crabgrass [6]; 125 g ai/ha,10
same,"Crabgrass, Large plant response rating",large crabgrass [6]; 500 g ai/ha,20
same,Velvetleaf plant response rating (0 to 100 scale),velvetleaf [7]; [15],0
same,"Plant response rating, Velvetleaf",velvetleaf [7]; [16],10
same,Velvetleaf plant response rating,velvetleaf [7]; 125 g ai/ha,20
same,Velvetleaf plant response rating,velvetleaf [7]; 500 g ai/ha,40
same,Morningglory plant response rating (0 to 100 scale),morningglory [8]; [15],0
same,"Plant response rating, Morningglory",morningglory [8]; [16],0
same,Morningglory plant response rating,morningglory [8]; 125 g ai/ha,50
same,Morningglory plant response rating,morningglory [8]; 500 g ai/ha,90
same,Barnyardgrass plant response rating (0 to 100 scale),barnyardgrass [9]; [15],0
same,"Plant response rating, Barnyardgrass",barnyardgrass [9]; [16],30
same,Barnyardgrass plant response rating,barnyardgrass [9]; 125 g ai/ha,0
same,Barnyardgrass plant response rating,barnyardgrass [9]; 500 g ai/ha,10
same,Pigweed plant response rating (0 to 100 scale),pigweed; [15],30
same,"Plant response rating, Pigweed",pigweed; [16],90
same,Pigweed plant response rating,pigweed; 125 g ai/ha,30
same,Pigweed plant response rating,pigweed; 500 g ai/ha,70
same,"Oat, Wild plant response rating",wild oat; 125 g ai/ha,10
same,"Oat, Wild plant response rating",wild oat; 500 g ai/ha,20
same,Morningglory plant response rating,morningglory [10]; [17],10
same,"Plant response rating, Morningglory",morningglory [10]; [18],25
same,Morningglory plant response rating,morningglory [10]; [19],25
same,Morningglory plant response rating,morningglory [10]; [20],10
same,Lambsquarters plant response rating (0 to 100 scale),lambsquarters; [15],0
same,"Plant response rating, Lambsquarters",lambsquarters; [16],50
same,Lambsquarters plant response rating,lambsquarters; 125 g ai/ha,30
same,Lambsquarters plant response rating,lambsquarters; 500 g ai/ha,80
same,"Sedge, Umbrella plant response rating",[11],60
same,"Crabgrass, Large plant response rating",large crabgrass [12]; [17],10
same,"Plant response rating, Crabgrass, Large",large crabgrass [12]; [18],15
same,"Crabgrass, Large plant response rating",large crabgrass [12]; [19],70
same,"Crabgrass, Large plant response rating",large crabgrass [12]; [20],40
same,"Foxtail, Giant plant response rating",giant foxtail [13]; [17],0
same,"Plant response rating, Foxtail, Giant",giant foxtail [13]; [18],0
same,"Foxtail, Giant plant response rating",giant foxtail [13]; [19],10
same,"Foxtail, Giant plant response rating",giant foxtail [13]; [20],0
same,Blackgrass plant response rating,blackgrass; 125 g ai/ha,0
same,Blackgrass plant response rating,blackgrass; 500 g ai/ha,0
same,Pigweed plant response rating,redroot pigweed; [17],10
same,"Plant response rating, Pigweed",redroot pigweed; [18],20
same,Pigweed plant response rating,redroot pigweed; [19],85
same,Pigweed plant response rating,redroot pigweed; [20],25
same,Velvetleaf plant response rating,velvetleaf [14]; [17],0
same,"Plant response rating, Velvetleaf",velvetleaf [14]; [18],15
same,Velvetleaf plant response rating,velvetleaf [14]; [19],15
same,Velvetleaf plant response rating,velvetleaf [14]; [20],0
same,Wheat plant response rating,wheat; 125 g ai/ha,0
same,Wheat plant response rating,wheat; 500 g ai/ha,0

# — patent US20060069132A1, “Azolecarboxamide herbicides” (priority 2004, published 2006)
